Results from patent US11793790B2, “Compositions against Candida infections” (Katholieke Universiteit Leuven, priority 2017, dated 2023).

Key:
C. albicans biofilms = experiment: Biofilm checkerboard assay (CTB metabolic activity, BEC-2, FICI); details: for BEC-2 MCZ: 24 h
[1] = system: C. albicans biofilm cells; experiment: Kinetic PI (propidium iodide) fluorescence assay on biofilms; type: cell-based, Candida albicans
[2] = system: planktonic C. glabrata cultures (strain BG2); experiment: Checkerboard assay with determination of the MIC; type: cell-based, Candida glabrata
Procedure: A C. glabrata BG2 overnight culture, grown in YPD, was diluted to an optical density of 0.1 (approximately 10^6 cells/mL) in RPMI medium, preheated at 37° C. 90 μL of the cell suspension was added to the wells of a 96 well plate, containing 10 μL of a combination of MCZ and DB, two fold diluted across rows and columns respectively (DMSO background 2%). After both 24 h and 48 h of incubation at 37° C., absorbance was measured at 490 nm by a multimode reader (Synergy Mx multi-mode microplate reader, BioTek, USA).
Domiphen bromide (DB) is a potentiator of miconazole against C. glabrata biofilms. […] MIC values were determined using Graphpad Prism 6 (table 8).

[3] = cited from earlier work
[4] = system: C. glabrata biofilms (strain BG2); experiment: Biofilm checkerboard assay with CFU determination (Example 9); type: cell-based, Candida glabrata; details: on its own or in combination with DB
Procedure: After 1 h of adhesion at 37° C., the medium was aspirated and biofilms were washed with 100 μL PBS to remove non-adherent cells, followed by the addition of 100 μL RPMI 1640 medium. Biofilms were allowed to grow for 24 h at 37° C. To determine possible potentiation of MCZ by DB, a checkerboard assay was used. […] After 38 h of incubation at 37° C., CFU determination was performed on treated biofilms. […] Serial dilutions (10^−2, 10^−3 and 10^−4) were plated on YPD agar plates, followed by an incubation period of 24 h at 37° C. and subsequent colony counting.

[5] = single treatment at 50 μM, 5-10 h after treatment

CC[N+](CC)(CC)CC.[Br-] [tetraethylammonium bromide]
FICI with Miconazole (C. albicans biofilms; quaternary ammonium compound combined with Miconazole): > 0.5

benzalkonium chloride
PI fluorescence [1, 5]: slight increase | potentiation of MCZ against planktonic C. glabrata cultures [2]: could not potentiate MCZ

CCCCCCCCCCCC[N+](C)(C)CCOc1ccccc1 [domiphen bromide, N,N-dimetyl-N-(2-phenoxyetyl)-, bromide]
PI fluorescence [1, 5]: slight increase | solubility in water [3]: highly soluble in water

CC[C@@H]([C@H](C)O)n1ncn(-c2ccc(N3CCN(c4ccc(OC[C@@H]5CO[C@@](Cn6cncn6)(c6ccc(F)cc6F)C5)cc4)CC3)cc2)c1=O [Posaconazole]
antibiofilm activity against C. glabrata biofilms [4]: no significant antibiofilm activity

Clc1ccc(COC(Cn2ccnc2)c2ccc(Cl)cc2Cl)c(Cl)c1 (stereo not drawn) [miconazole nitrate]
solubility in water [3]: insoluble in water

Clc1ccc(COC(Cn2ccnc2)c2ccc(Cl)cc2Cl)c(Cl)c1 (racemic) [Miconazole, (RS)-1-[2-(2,4-dichlorofenyl)-2-[(2,4-dichlorofenyl)methoxy]ethyl] imidazole]
BEC-2 MCZ (C. albicans biofilms; 0 μM DB (MCZ alone)): 230 µM | BEC-2 MCZ (C. albicans biofilms; in combination with 1.56 μM DB): 150 µM | BEC-2 MCZ (C. albicans biofilms; in combination with 3.125 μM DB): 100 µM | BEC-2 MCZ (C. albicans biofilms; in combination with 6.25 μM DB): 55 µM | BEC-2 MCZ (C. albicans biofilms; in combination with 12.5 μM DB): 30 µM | BEC-2 MCZ (C. albicans biofilms; in combination with 25 μM DB): 1 µM | PI fluorescence ([1]; single treatment 150 μM, after 16 h of treatment): slight increase | solubility in water [3]: insoluble in water
